# Laboratory results from paper PMC6273125, “Antioxidant Activity of 3-[N-(Acylhydrazono)ethyl]-4-hydroxy-coumarins” (Molecules, 2016).
# “Also recorded” adds a separate entry of the source.
# Tests used:
# [1] = Reducing activity of the DPPH stable free radical (RA%); details: DPPH 0.05 mM in ethanol; for RA%, 50 μM, 20 min / RA%, 50 μM, 60 min: compound 50 μM; for RA%, 100 µM, 20 min: compound 100 µM; for RA%, 100 μM, 60 min: compound 100 μM
# Text: It is well known that the interaction of the synthesized 3-acetyl-4-hydroxycoumarin N-acylhydrazones 2 with the stable free radical DPPH indicates their radical scavenging ability in an iron-free system. […] Considering the antioxidant activity of 3-acetyl-4-hydroxy coumarin (1) it seems to be higher than the hydrazone derivatives 2a–l in both concentrations and in relation with the time and it is correlated with the presence of 3-acetyl and 4-hydroxy groups in the lactone ring and the possibility of tautomers (A–D) formation as shown in Scheme 2. It has been reported that 3-acetyl-4-hydroxycoumarin mainly exists in endocyclic enol form (B) in polar solvents (methanol, ethanol) and it is well known that enols show antioxidant activity e.g., it has been reported that enolic and phenolic hydroxyl groups is beneficial for curcumin to protect erythrocytes against hemin-induced hemolysis and to protect DNA against AAPH-induced oxidation. The lower results of hydrazones 2a–l, are correlated with their stereochemistry which influence their interaction with DPPH.
# To an ethanolic solution of DPPH (0.05 mM) in absolute ethanol the new coumarin derivatives dissolved in DMSO were added (final concentration 50 and 100 µM). The mixture was shaken vigorously and allowed to stand for 20 min or 60 min; absorbance at 517 nm was determined spectrophotometrically against the blank and the percentage of reducing activity (RA) was calculated by the formula: RA% = [(A0 − A1)/A0] × 100 where A0 is the absorbance of blank and A1 is the absorbance of the reaction mixture.
# [2] = Inhibition of linoleic acid lipid peroxidation induced by AAPH; details: pH 7.4, 37 °C
# Text: AAPH induced linoleic acid oxidation is based on the inhibition of lipid oxidation and provides a measure of how efficiently antioxidants protect against lipid oxidation in vitro. Oxidation of exogenous linoleic acid by a thermal free radical producer (AAPH) is followed by UV spectrophotometry in a highly-diluted sample [36, 42].
# Production of conjugated diene hydroperoxide by oxidation of linoleic acid in an aqueous dispersion is monitored at 234 nm. 2,2′-Azobis(2-amidinopropane) dihydrochloride (AAPH) is used as a free radical initiator. Ten microliters of the 16 mM linoleic acid sodium salt solution was added to the UV cuvette containing 930 µL of […] phosphate buffer, pH 7.4 prethermostated at 37 °C. The oxidation reaction was initiated at 37 °C under air by the addition of 50 μL of 40 mM AAPH solution. Oxidation was carried out in the presence of aliquots (10 μL) of the tested coumarins. In the assay without antioxidant, lipid peroxidation was measured in the presence of the same level of DMSO. The rate of oxidation at 37 °C was monitored by recording the increase in absorption at 234 nm caused by conjugated diene hydroperoxides.
# [3] = biological target: T1, soybean lipoxygenase (LOX) (Glycine max, UniProt P08170); assay: In vitro inhibition of soybean lipoxygenase, UV-absorbance-based enzyme assay; format: biochemical; details: for IC50 / LOX IC50: soybean lipoxygenase, sodium linoleate, Tris buffer pH 9
# T1 construct: purchased Sigma Chemical, Co. (St. Louis, MO, USA)
# T1 sequence (P08170 1-839): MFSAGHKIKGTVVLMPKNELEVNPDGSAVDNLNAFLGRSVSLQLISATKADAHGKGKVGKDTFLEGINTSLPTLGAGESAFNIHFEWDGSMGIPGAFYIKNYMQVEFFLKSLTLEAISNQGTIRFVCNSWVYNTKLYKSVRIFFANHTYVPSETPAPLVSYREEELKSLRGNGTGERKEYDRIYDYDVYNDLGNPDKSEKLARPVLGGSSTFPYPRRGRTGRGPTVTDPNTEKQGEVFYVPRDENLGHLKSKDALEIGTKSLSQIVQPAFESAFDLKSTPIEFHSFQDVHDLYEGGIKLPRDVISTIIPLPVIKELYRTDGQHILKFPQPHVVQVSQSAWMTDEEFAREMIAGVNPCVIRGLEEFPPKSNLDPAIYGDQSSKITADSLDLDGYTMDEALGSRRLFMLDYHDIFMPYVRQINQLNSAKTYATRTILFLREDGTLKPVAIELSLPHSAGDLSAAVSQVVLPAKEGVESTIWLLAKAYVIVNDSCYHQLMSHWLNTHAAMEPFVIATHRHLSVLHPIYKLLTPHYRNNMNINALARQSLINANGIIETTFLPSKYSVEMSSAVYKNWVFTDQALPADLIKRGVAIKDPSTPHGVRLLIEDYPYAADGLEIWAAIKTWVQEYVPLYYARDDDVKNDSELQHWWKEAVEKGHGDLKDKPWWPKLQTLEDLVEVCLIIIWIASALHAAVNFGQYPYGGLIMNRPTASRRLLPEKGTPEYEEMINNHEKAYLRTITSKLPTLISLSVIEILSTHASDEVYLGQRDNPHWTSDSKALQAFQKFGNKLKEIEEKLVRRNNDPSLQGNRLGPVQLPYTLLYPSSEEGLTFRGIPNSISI
# Procedure: The tested compounds dissolved in DMSO were incubated at room temperature with sodium linoleate (100 µL) and 200 µL of enzyme solution (1/9 × 10^−4 w/v in saline) in Tris buffer pH 9. The conversion of sodium linoleate to 13-hydroperoxylinoleic acid at 234 nm was recorded and compared with the appropriate standard inhibitor.
# [4] = parameters: method as in PMID 1322662; details: cited from earlier work
Compound,"RA%, 50 μM, 20 min [1]","RA%, 50 μM, 60 min [1]","RA%, 100 µM, 20 min [1]","RA%, 100 μM, 60 min [1]","LP 60 s, 100 μM (% inhibition of LP induced by AAPH) [2]",IC50 [3],melting point,antioxidant activity [4],inhibition at 100 µM [3],"LOX % inhibition ([3]; 100 µM, IC50 not determined)",LOX IC50 [3]
"CC(Cc1ccc(O)c(O)c1)C(C)Cc1ccc(O)c(O)c1 (centres unmarked) [NDGA, nordihydroguairetic acid, reference compound]",84 ± 2.0%,83 ± 3.3%,81 ± 5.2%,83 ± 4.7%,,,,,,,
"CC(=NNC(=O)c1cccs1)c1c(O)c2ccccc2oc1=O [2k, 3-{N-[(2′-Thienylcarbonyl)hydrazono]ethyl}-4-hydroxycoumarin]",7 ± 0.1%,9 ± 0.2%,25 ± 2.1%,30 ± 2.2%,98 ± 3.9%,43.5 ± 3.2 µM,228 to 228.5 °C,,,,
O=c1cc(O)c2ccccc2o1 [4-hydroxy coumarin],,,,,,,,not found to present any antioxidant activity,,,
"CC(=O)c1c(O)c2ccccc2oc1=O [compound 1, 3-Acetyl-4-hydroxycoumarin]",29 ± 0.5%,31± 0.3%,36± 1.3%,36 ± 0.8%,,,,,44%,low inhibitory activity,
"CC(=NNC(=O)c1ccccc1[N+](=O)[O-])c1c(O)c2ccccc2oc1=O [2l, 3-{N-[(2′-Nitrobenzoyl)hydrazono]ethyl}-4-hydroxycoumarin]",6 ± 0.3%,10 ± 0.2%,27 ± 2.2%,29 ± 1.0%,95 ± 6.2%,35 ± 0.2 µM,219 °C,,,,
"CC(=NNC(=O)c1ccccc1O)c1c(O)c2ccccc2oc1=O [2i, 3-{N-[(2′-Hydroxybenzoyl)hydrazono]ethyl}-4-hydroxycoumarin]",8 ± 0.5%,10 ± 0.1%,27 ± 0.2%,29 ± 1.7%,100 ± 8.2%,49.5 ± 1.2 µM,271 to 272 °C,,,,
"CC(=NNC(=O)c1ccccc1)c1c(O)c2ccccc2oc1=O [2c, 3-[N-(Benzoylhydrazono)ethyl]-4-hydroxycoumarin]",5 ± 0.1%,7 ± 0.4%,25 ± 1.2%,30 ± 2.8%,98 ± 5.4%,58 ± 2.7 µM,,,,,
"Cc1c(C)c2c(c(C)c1O)CCC(C)(C(=O)O)O2 (centres unmarked) [TROLOX, trolox, reference compound]",,,,,63 ± 0.2%,,,,,,
"CC(=NNC(=O)c1ccc(N)cc1)c1c(O)c2ccccc2oc1=O [2g, 3-{N-[(4′-Aminobenzoyl)hydrazono]ethyl}-4-hydroxycoumarin]",9 ± 0.3%,16 ± 0.6%,27 ± 0.8%,31 ± 1.4%,95 ± 7.2%,46.5 ± 2.3 µM,256 to 257 °C,,,,
"CC(=NNC(=O)c1ccc(Cl)cc1)c1c(O)c2ccccc2oc1=O [2e, 3-{N-[(4′-Chlorobenzoyl)hydrazono]ethyl}-4-hydroxycoumarin]",7 ± 0.2%,10 ± 0.5%,27 ± 0.9%,29 ± 0.8%,94 ± 4.8%,55 ± 2.1 µM,248 to 248.5 °C,,,,
"CC(=NNC(=O)Cc1ccccc1)c1c(O)c2ccccc2oc1=O [2b, 3-[N-(Phenylacetylhydrazono)ethyl]-4-hydroxycoumarin]",4 ± 0.2%,7 ± 0.1%,25 ± 2.0%,29 ± 1.1%,100 ± 5.5%,40 ± 0.5 µM,216 to 217 °C,,,,
"CC(=NNC(=O)c1ccncc1)c1c(O)c2ccccc2oc1=O [2h, 3-[N-(Isonicotinoylhydrazono)ethyl]-4-hydroxycoumarin]",5 ± 0.1%,8 ± 0.2%,27 ± 1.5%,31 ± 1.6%,99 ± 3.7%,,274 °C,,,,do not seem to present any activity; also recorded: No ^c
"CC(=NNC(=O)c1ccc(O)cc1)c1c(O)c2ccccc2oc1=O [2f, 3-{N-[(4′-Hydroxybenzoyl)hydrazono]ethyl}-4-hydroxycoumarin]",10 ± 0.5%,14 ± 1.2%,24 ± 2.2%,26 ± 1.2%,98 ± 2.9%,70 ± 4.3 µM,287 to 288 °C,,,,
"CC(=O)NN=C(C)c1c(O)c2ccccc2oc1=O [2a, 3-[N-(Acetylhydrazono)ethyl]-4-hydroxycoumarin]",5 ± 0.2%,7 ± 0.3%,23 ± 3.0%,24 ± 2.0%,100 ± 9.8%,62.5 ± 2.3 µM,248 to 249 °C,,,,
"CC(=NNC(=O)c1ccc(C)cc1)c1c(O)c2ccccc2oc1=O [2d, 3-{N-[(4′-Methylbenzoyl)hydrazono]ethyl}-4-hydroxycoumarin]",7 ± 0.3%,10 ± 0.2%,27 ± 2.2%,27 ± 1.4%,100 ± 3.2%,,251 to 252 °C,,,,do not seem to present any activity; also recorded: No ^c
"CC(=NNC(=O)c1ccco1)c1c(O)c2ccccc2oc1=O [2j, 3-{N-[(2′-Furoyl)hydrazono]ethyl}-4-hydroxycoumarin]",4 ± 0.2%,8 ± 0.3%,25 ± 1.8%,27 ± 0.8%,95 ± 4.1%,90 ± 5.1 µM,254.5 to 255 °C,,,,
